Results: US20170065564A1, “BIS-CYCLIC GUANIDINE COMPOUND COMPOSITIONS, METHODS OF USE AND TREATMENT THEREOF” (University of South Florida, priority 2014, published 2017)

Experiments:
Type in all cases: cell-based
Acinetobacter baumannii = assay: MIC micro broth dilution assay; design: key to stacked score activity, 100/MIC, A: stacked score = 100/MIC; conditions: A. baumannii
Procedure: (§1) For this study we used a representative panel of multi-drug resistant clinical ESKAPE pathogen isolates (Supplemental Table S6).^42 43 3a, 44 45 Gram-positive organisms were grown in tryptic soy broth media (TSB), whilst Gram-negative organisms were grown in lysogeny Broth (LB), as described by us previously. ^43 MIC and MBC determination assays.
(§2) Broth cultures of ESKAPE strains were grown overnight before being diluted 1 in 1,000 in fresh media. Sterile 96-well plates were loaded with culture and compounds (in DMF) were added at decreasing concentrations to equal a total volume of 200 μl per well. Care was taken to not add more than 2.0% DMF to any well. Plates were then incubated at 37° C., and MICs determined after 24 hours by visual inspection for a lack of turbidity in wells. All assays were performed in triplicate with identical results obtained. For both the scaffold ranking and positional scanning samples, relative broad-spectrum activity was determined via stacked scores: […]

Klebsiella pneumoniae = assay: MIC micro broth dilution assay; design: key to stacked score activity, 100/MIC, K: stacked score = 100/MIC; conditions: K. pneumoniae
Procedure: as §1, §2

Enterococcus faecium = assay: MIC micro broth dilution assay; design: key to stacked score activity, 100/MIC, E: stacked score = 100/MIC; conditions: E. faecium
Procedure: as §1, §2

Enterobacter cloacae = assay: MIC micro broth dilution assay; design: key to stacked score activity, 100/MIC, E: stacked score = 100/MIC; conditions: E. cloacae
Procedure: as §1, §2

Staphylococcus aureus = assay: MIC micro broth dilution assay; design: key to stacked score activity, 100/MIC, S: stacked score = 100/MIC; conditions: S. aureus
Procedure: as §1, §2

ESKAPE pathogens = assay: MIC micro broth dilution assay, statements and stacked scores over all ESKAPE pathogens; conditions: letters E,S,K,A,P,E = ESKAPE pathogens, — = none
Procedure: as §1
as §2, with “The minimum inhibitory concentration (MIC) for the combinatorial libraries, deconvolved 2157 library, and individual compounds were determined as follows. Broth” for “Broth”

stacked score activity, 100/MIC, A (Acinetobacter baumannii)	stacked score activity, 100/MIC, K (Klebsiella pneumoniae)	stacked score activity, 100/MIC, E (Enterococcus faecium)	stacked score activity, 100/MIC, E (Enterobacter cloacae)	stacked score activity, 100/MIC, S (Staphylococcus aureus)	SMILES	pathogens against which the compound showed activity at 25 ug/ml (ESKAPE pathogens)	pathogens against which the compound showed activity at 5 ug/ml (ESKAPE pathogens; dose 5 ug/ml)	pathogens against which the compound showed activity at 10 ug/ml (ESKAPE pathogens; dose 10 ug/ml)
0	0	0	0	4	CCC[C@@H]1CN(CCCC[C@H]2CNC(=N)N2CC2CCC(C)CC2)C(=N)N1 (stereo partly shown) [Compound 52]			
4	0	4	0	10	CCCCCCCN1C(=N)NC[C@@H]1CCCCN1C[C@@H](CCC)N(CCc2cccc(C)c2)C1=N [Compound 35]	ESAP		
0	0	0	0	0	N=C1NCCN1CCCC[C@H]1CNC(=N)N1CC1CCCCC1 [Compound 37]			
20	20	20	20	20	N=C1NC[C@H](CCCCN2C[C@H](CC3CCCCC3)N(CCc3ccc(-c4ccccc4)cc3)C2=N)N1CCCCC1CCCCC1 [Compound 18]	ESKAPE	ESKAPE	ESKAPE
0	0	0	0	4	Cc1cccc(CCN2CCN(CCCC[C@H]3CNC(=N)N3CC3CCCCC3)C2=N)c1 [Compound 38]			
0	0	0	0	4	Cc1cccc(CCN2CCN(CCCC[C@H]3CNC(=N)N3CC3CCC(C)CC3)C2=N)c1 (stereo partly shown) [Compound 47]			
0	0	0	0	4	CCCCCCCN1C(=N)NC[C@@H]1CCCCN1C[C@@H](CCC)N(CC(C)CC)C1=N (stereo partly shown) [Compound 36]			
0	0	4	0	10	N=C1NC[C@H](CCCCN2C[C@@H](Cc3cccc4ccccc34)N(CCc3ccc(-c4ccccc4)cc3)C2=N)N1CCC12CC3CC(CC(C3)C1)C2 [Compound 24]			
0	0	0	0	0	CCC[C@@H]1CN(CCCC[C@H]2CNC(=N)N2CC2CCCCC2)C(=N)N1 [Compound 43]			
0	0	0	0	4	CCCCCCCN1C(=N)NC[C@@H]1CCCCN1C[C@H](C(C)CC)NC1=N (stereo partly shown) [Compound 31]			
0	0	0	0	0	CCC(C)CN1CCN(CCCC[C@H]2CNC(=N)N2CC2CCCCC2)C1=N (stereo partly shown) [Compound 39]			
0	0	0	0	4	CCC[C@@H]1CN(CCCC[C@H]2CNC(=N)N2CC2CCCCC2)C(=N)N1CC(C)CC (stereo partly shown) [Compound 45]			
0	0	0	0	4	CCC[C@@H]1CN(CCCC[C@H]2CNC(=N)N2CC2CCC(C)CC2)C(=N)N1CCc1cccc(C)c1 (stereo partly shown) [Compound 53]			
0	0	0	0	4	CCCCCCCN1C(=N)NC[C@@H]1CCCCN1C[C@@H](CCC)NC1=N [Compound 34]			
0	0	0	0	0	CCC(C)[C@H]1CN(CCCC[C@H]2CNC(=N)N2CC2CCCCC2)C(=N)N1 (stereo partly shown) [Compound 40]			
0	0	0	0	0	CCCCCCCN1C(=N)NC[C@@H]1CCCCN1CCN(CC(C)CC)C1=N (stereo partly shown) [Compound 30]			
0	0	0	0	4	CCC(C)CN1C(=N)N(CCCC[C@H]2CNC(=N)N2CC2CCC(C)CC2)C[C@@H]1C(C)CC (stereo partly shown) [Compound 51]			
0	0	0	0	4	CCC[C@@H]1CN(CCCC[C@H]2CNC(=N)N2CC2CCCCC2)C(=N)N1CCc1cccc(C)c1 [Compound 44]			
0	0	0	0	4	CCC(C)[C@H]1CN(CCCC[C@H]2CNC(=N)N2CC2CCCCC2)C(=N)N1CCc1cccc(C)c1 (stereo partly shown) [Compound 41]			
0	0	0	0	4	CCCCCCCN1C(=N)NC[C@@H]1CCCCN1CCN(CCc2cccc(C)c2)C1=N [Compound 29]			
0	0	0	0	0	CCC(C)CN1CCN(CCCC[C@H]2CNC(=N)N2CC2CCC(C)CC2)C1=N (stereo partly shown) [Compound 48]			
0	0	0	0	0	CCCCCCCN1C(=N)NC[C@@H]1CCCCN1CCNC1=N [Compound 28]			
0	0	0	0	4	CCC(C)CN1C(=N)N(CCCC[C@H]2CNC(=N)N2CC2CCCCC2)C[C@@H]1C(C)CC (stereo partly shown) [Compound 42]			
0	0	0	0	0	CC1CCC(CN2C(=N)NC[C@@H]2CCCCN2CCNC2=N)CC1 (stereo partly shown) [Compound 46]			
0	0	0	0	4	CCC[C@@H]1CN(CCCC[C@H]2CNC(=N)N2CC2CCC(C)CC2)C(=N)N1CC(C)CC (stereo partly shown) [Compound 54]			
0	0	0	0	4	CCCCCCCN1C(=N)NC[C@@H]1CCCCN1C[C@H](C(C)CC)N(CC(C)CC)C1=N (stereo partly shown) [Compound 33]			
0	0	0	0	4	CCC(C)[C@H]1CN(CCCC[C@H]2CNC(=N)N2CC2CCC(C)CC2)C(=N)N1 (stereo partly shown) [Compound 49]			
